{"source": "patent US20200390850A1", "about": "“PEPTIDES AND USES THEREOF” (LATERAL IP PTY LTD, priority 2018, published 2020)", "key": {"[1]": {"assay": "Ex vivo metabolism of LAT8881 in human whole blood", "format": "in vitro ADME", "procedure": "(§1) Human or rat blood was collected into K2EDTA tubes and approximately 2.94 mL of blood was transferred into a polypropylene tube and kept in a water bath at 37° C. […] At the indicated times, approximately 300 μL of the spiked blood sample was transferred into a vial containing 30 μL of OX Protease Inhibitor Cocktail (Sigma Aldrich; Product No. P2714), mixed well and centrifuged at 4° C. The plasma fraction was then collected, transferred into polypropylene tubes and stored at -80° C. […] […] NO:11)) and vortex-mixed with 200 μL of acetonitrile for 5 min at 1500 rpm. The resulting mixture was then centrifuged at 14000 rpm for 5 min and the supernatant was evaporated at 37° C. under a stream of nitrogen to dryness. The residue was reconstituted in 150 μL of reconstitution solution and approximately 150 μL of the reconstituted sample was transferred to a 96 well-plate for injection into the LC-MS system. […] The mobile phase was (a) 5% acetonitrile/water with 0.1% formic acid, and (b) 95% acetonitrile/water with 0.1% formic acid. Eluted peaks were analysed using mass spectrometry. For the analysis of LAT9998 (SEQ ID NO:11), a 5 μL aliquot of each plasma sample was injected into a Shimadzu Nexera UPLC system equipped with a Phenomenex Aeris Peptide XB-C18, 3.6 μm, 150×2.1 mm. The mobile phase was (a) 5% acetonitrile/water with 0.1% formic acid, and (b) 95% acetonitrile/water with 0.1% formic acid. Eluted peaks were analysed using mass spectrometry. Samples were analysed using an AB Sciex QTrap 5500 mass spectrometer with ESI in positive mode. MRM analyses were conducted with Ion Spray (IS) at 5500 V and the Curtain Gas (CUR) was set at 20. Multiple MRM transitions were monitored to ensure the chromatographic peaks observed are from the nominal compound. Results are reported as analyte peak area ratios (normalized versus internal standard peak area)."}, "[2]": {"assay": "Ex vivo metabolism of LAT8881 in rat whole blood", "format": "in vitro ADME", "procedure": "as §1"}, "[3]": {"test_system": "rats with CFA-induced inflammation", "assay": "Paw withdrawal threshold in CFA-induced inflammatory (nociceptive) pain", "format": "in vivo, rat", "details": "3 mg/kg body weight; at 1 and 2 hours after administration", "procedure": "Briefly, rats were anaesthetized with 3% isoflurane mixed with 97% oxygen. The left paw was injected with 0.05 ml CFA emulsion (F5881, Sigma-Aldrich) in saline (CFA:saline=1:1, vol./vol.). After CFA injection, the animals were returned to their home cages. Regular observations were be carried out to monitor the conditions of the animals after injection."}, "[4]": {"test_system": "nerve cells in spinal cord slices", "assay": "Spontaneous electrical activity in spinal cord slices from Chung model rats", "format": "cell-based, rat", "details": "1 μM added to spinal cord slice", "procedure": "Within 2 minutes of addition of 1 μM LATc9991F to the spinal cord slice, this electrical activity was suppressed; * indicates time that LATc9991F was added to the spinal cord slice preparation.\nThis study was undertaken to assess the effect of LATc9991F (SEQ ID NO:10) on spontaneous electrical activity on spinal cord slices from Chung model rats with confirmed neuropathic pain. LATc9991F is a non-human variant of LAT9991F that is derived from the feline, canine and equine variants of human growth hormone, as described in WO 2013/082667.\nBriefly, spinal cord slices were prepared from Chung model rats with confirmed neuropathic pain symptoms, and spontaneous electrical activity was measured as in Example 1. […] Within 2 minutes of addition of LATc9991F to the slice, this electrical activity was suppressed by LATc9991F."}, "[5]": {"test_system": "Chung rats", "assay": "Paw withdrawal threshold in nerve constriction model of neuropathic pain (Chung model)", "format": "in vivo, rat", "details": "for paw withdrawal threshold of ipsilateral paw: vs vehicle", "procedure": "Briefly, adult male Sprague-Dawley rats, 8-9 weeks old, weighing 220-250 g at the time of surgery, were purchased from Charles River UK Ltd.\nThe animals were housed in groups of 4 in an air-conditioned room on a 12-hour light/dark cycle. Food and water were available ad libitum. They were allowed to acclimatise to the experimental environment for three days by leaving them on a raised metal mesh for at least 40 min. The baseline paw withdrawal threshold (PWT) was examined using a series of graduated von Frey hairs for 3 consecutive days before surgery and re-assessed on the 6th to 8th day after surgery and on the 12th to 14th day after surgery before drug dosing.\nEach rat was anaesthetized with 5% isoflurane mixed with oxygen (2 L per min) followed by an intramuscular (i.m.) injection of ketamine 90 mg/kg plus xylazine 10 mg/kg. The back was shaved and sterilized with povidone-iodine. The animal was placed in a prone position and a para-medial incision was made on the skin covering the L4-6 level. The L5 spinal nerve was carefully isolated and tightly ligated with 6/0 silk suture. The wound was then closed in layers after a complete hemostasis. A single dose of antibiotics (Amoxipen, 15 mg/rat, i.p.) was routinely given for prevention of infection after surgery. The animals were placed in a temperature-controlled recovery chamber until fully awake before being returned to their home cages.\nThe vehicle (1% DMSO in PBS) and LAT8881 (AOD9604, GL449; provided by Lateral Pharma Pty Ltd) was administrated intramuscularly (i.m.) into the leg of the side contralateral to the site of injury. Dosing was carried out by a second experimenter. The rats with validated neuropathic pain state were randomly divided into 5 experimental groups: 1 ml/kg vehicle, 0.1, 0.5, 1 and 5 mg/kg LAT8881.\nEach group had 8 animals. The animals were placed in individual Perspex boxes on a raised metal mesh for at least 40 minutes before the test. Starting from the filament of lowest force (about 1 g), each filament was applied perpendicularly to the centre of the ventral surface of the paw until slightly bent for 6 seconds. If the animal withdrew or lifted the paw upon stimulation, then a hair with force immediately lower than that tested was used. If no response was observed, then a hair with force immediately higher was tested. The lowest amount of force required to induce reliable responses (positive in 3 out of 5 trials) was recorded as the value of PWT.\nThe drug test was carried out on the 12th to 14th day after surgery. PWT were assessed before, 1, 2 and 4 hours following drug or vehicle administration. The animals were rested by being returned to their home cages (about 30-60 min) between two neighbouring testing time points. LAT8881 was administered by a single intramuscular injection (IM) in the ipsilateral limb at a dose of about 0.1 mg/kg body weight to about 5 mg/kg body weight.\nLAT9991 was administered by a single intramuscular injection (IM) in the ipsilateral limb at a dose of about 0.1 mg/kg body weight to about 5 mg/kg body weight.\nGabapentin, as a positive control, obtained from Actavis, UK (Lot No. GJ29), was administered orally at 100 mg/2 ml/kg in normal saline. Dosing was carried out by a second experimenter.\nBriefly, LAT9991F was administered orally at a dose of about 1 mg/kg body weight to about 5 mg/kg body weight.\nBriefly, LAT9991 was administered orally at a dose of about 1 mg/kg body weight, 2 mg/kg body weight and 5 mg/kg body weight."}, "[6]": {"test_system": "Lamina I or II neurones", "assay": "Whole-cell patch clamp on spinal cord slices with intact dorsal root afferents: evoked post-synaptic currents", "format": "cell-based, rat", "details": "comparator; data not shown", "procedure": "An in vitro spinal cord slice with intact dorsal root afferents combined with single-cell whole-cell patch clamp electrophysiological recording techniques was used to assess the electrophysiological properties of the peptide having the amino acid sequence of SEQ ID NO:2.\nSpinal cord slices were prepared from chronic nerve constriction models of neuropathic pain (Chung models) and tested against the peptide of SEQ ID NO:2.\nThe spinal nerve ligation model (Chung model) was first reported by Kim and Chung (1992; Pain, 50(3):355-63) and involves a single tight ligation of the L5 spinal nerve. […] This model has been used as a “gold standard’ model for assessing the efficacy of novel compounds targeting neuropathic pain.\nAdult male Sprague-Dawley rats, 8-9 weeks old, weighing 220-250 g at the time of surgery, were purchased from Charles River UK Ltd. The animals were housed in groups of 4 in an air-conditioned room on a 12-hour light/dark cycle. […] The baseline paw withdrawal threshold (PWT) was examined using a series of graduated von Frey hairs for 3 consecutive days before surgery and re-assessed on the 6th to 8th day after surgery and on the 12th to 14th day after surgery before drug dosing Each rat was anaesthetized with 5% isoflurane mixed with oxygen (2 L per min) followed by an intramuscular (i.m.) injection of ketamine 90 mg/kg plus xylazine 10 mg/kg. […]"}}, "note": "Positions of bridges follow the written chain, without caps; N, C: chain ends. Residues, ends and D or L forms follow the SMILES beside them."}
{"compound": "CC(C)[C@@H]1NC(=O)[C@H](CO)NC(=O)[C@H](CCCNC(=N)N)NC(=O)[C@@H](N)CSSC[C@@H](C(=O)NCC(=O)N[C@@H](Cc2ccccc2)C(=O)O)NC(=O)[C@H](CO)NC(=O)CNC(=O)[C@H](CCC(=O)O)NC1=O", "note": "[LAT9991F, CRSVEGSCGF] (H-CRSVEGSCGF-OH; disulfide 1-8; N-terminus and C-terminus assumed)", "values": [{"measurement": "half-life", "setting": "[1]; human, blood", "value": "> 1", "unit": "h"}, {"measurement": "half-life", "setting": "[2]; rat, blood", "value": "> 1", "unit": "h"}]}
{"compound": "CN1CC[C@]23c4c5ccc(O)c4O[C@H]2[C@@H](O)C=C[C@H]3[C@H]1C5", "note": "[morphine]", "values": [{"measurement": "analgesic effect on nociceptive pain (paw withdrawal threshold)", "setting": "[3]", "value": "significant analgesic effect"}]}
{"compound": "CRRFVESSCA (listed as Canis lupus) [LATc9991F, non-human variant of LAT9991F derived from the feline, canine and equine variants of human growth hormone]", "values": [{"measurement": "spontaneous electrical activity in nerve cells", "setting": "[4]", "value": "suppressed"}, {"measurement": "time after addition within which electrical activity was suppressed", "setting": "[4]", "value": "≤ 2", "unit": "min"}]}
{"compound": "CRSVEGSC (listed as Homo sapiens) [LAT9998, metabolite of LAT8881]", "values": [{"measurement": "Detection of LAT9998 (peak area ratio) in all samples", "setting": "[1]", "value": "LAT9998 peaks were not detectable"}, {"measurement": "Detection of LAT9998 (peak area ratio) in all samples", "setting": "[2]", "value": "LAT9998 peaks were not detectable"}]}
{"compound": "CRSVEGSCG (listed as Homo sapiens) [LAT9991]", "values": [{"measurement": "analgesic effect compared with gabapentin at 100 mg/kg body weight orally", "setting": "[5]; 5 mg/kg body weight PO", "value": "comparable"}, {"measurement": "analgesic effect compared with gabapentin at 100 mg/kg body weight", "setting": "[5]; 5 mg/kg body weight i.m.", "value": "comparable"}, {"measurement": "effect on the contralateral paw responses", "setting": "[5]; PO", "value": "No effect"}, {"measurement": "time after administration within which effect on paw withdrawal threshold was observed", "setting": "[5]; PO", "value": "≤ 1", "unit": "h"}, {"measurement": "time for which effect on paw withdrawal threshold was maintained", "setting": "[5]; PO", "value": "at least 4 hours"}, {"measurement": "improvement in paw withdrawal threshold compared with LAT8881", "setting": "[5]; PO, vs Example 7", "value": "comparable"}, {"measurement": "effect on the contralateral paw", "setting": "[5]; i.m.", "value": "no effect"}, {"measurement": "time after administration within which effect on paw withdrawal threshold was observed", "setting": "[5]; i.m.", "value": "≤ 1", "unit": "h"}, {"measurement": "time for which effect on paw withdrawal threshold was maintained", "setting": "[5]; i.m.", "value": "at least 4 hours"}, {"measurement": "improvement in paw withdrawal threshold compared with LAT8881", "setting": "[5]; i.m., vs Example 5", "value": "comparable"}, {"measurement": "biological activity compared to the parent peptide LAT8881 (magnitude and duration of neuropathic analgesia)", "setting": "[5]; nerve constriction model", "value": "equivalent or substantially equivalent"}, {"measurement": "paw withdrawal threshold of ipsilateral paw", "setting": "[5]; oral gavage 1, 2 and 5 mg/kg body weight", "value": "significant dose-dependent improvement"}, {"measurement": "paw withdrawal threshold of ipsilateral paw", "setting": "[5]; single i.m. injection, about 0.1 to 5 mg/kg body weight", "value": "significant dose-dependent improvement"}]}
{"compound": "human growth hormone: human growth hormone, comparator in the spinal cord slice recording", "values": [{"measurement": "effect on post-synaptic current", "setting": "[6]", "value": "no effect"}]}
